Measurements as given in patent publication US20070128217A1 (priority 2003, published 2007).

What was measured:
[1] = test system: antibodies in sera from SARS patients (sera 1a, 1b, 2, 6, 37, 62, London, SARS-yellow, SARS-green); assay type: binding, human; set-up: Binding of serum 6 to linear peptides of protein X1 of SARS-CoV Urbani / Binding of serum 37 to linear peptides of protein X1 of SARS-CoV Urbani / Binding of serum 6 to looped/cyclic peptide (PEPSCAN-ELISA) / Binding of serum 37 to looped/cyclic peptide (PEPSCAN-ELISA) / Binding of serum 37 to looped/cyclic peptides of protein X1 of SARS-CoV Urbani / Binding of serum 6 to linear peptides of protein X2 / Binding of serum 37 to linear peptides of protein X2 / Binding of serum 37 to looped/cyclic peptides of protein X2 of SARS-CoV Urbani / Binding of serum 6 to linear peptides of protein M of SARS-CoV Urbani / Binding of serum 37 to linear peptides of protein M of SARS-CoV Urbani / Binding of serum 6 to looped/cyclic peptides of protein M of SARS-CoV Urbani / Binding of serum 37 to looped/cyclic peptides of protein M of SARS-CoV Urbani / Binding of serum 6 to linear peptides of protein X3 of SARS-CoV Urbani / Binding of serum 37 to linear peptides of protein X3 of SARS-CoV Urbani / Binding of serum 37 to looped/cyclic peptides of protein X3 of SARS-CoV Urbani / Binding of serum 6 to linear peptides of protein X4 of SARS-CoV Urbani / Binding of serum 37 to linear peptides of protein X4 of SARS-CoV Urbani / Binding of serum 37 to looped/cyclic peptides of protein X4 of SARS-CoV Urbani / Binding of serum 6 to linear peptides of protein X5 of SARS-CoV Urbani / Binding of serum 37 to linear peptides of protein X5 of SARS-CoV Urbani / Binding of serum 37 to looped/cyclic peptides of protein X5 of SARS-CoV Urbani / Binding of serum 6 to linear peptides of protein N of SARS-CoV Urbani / Binding of serum 37 to linear peptides of protein N of SARS-CoV Urbani / Binding of serum 6 to linear peptide (PEPSCAN-ELISA) / Binding of serum 1a to looped/cyclic peptides of protein N of SARS-CoV Urbani / Binding of serum 1b to looped/cyclic peptides of protein N of SARS-CoV Urbani / Binding of serum 2 to looped/cyclic peptides of protein N of SARS-CoV Urbani / Binding of serum 6 to looped/cyclic peptides of protein N of SARS-CoV Urbani / Binding of serum 37 to looped/cyclic peptides of protein N of SARS-CoV Urbani / Binding of serum 62 to looped/cyclic peptides of protein N of SARS-CoV Urbani / Binding of serum London to looped/cyclic peptides of protein N of SARS-CoV Urbani / Binding of serum SARS-green to looped/cyclic peptides of protein N of SARS-CoV Urbani: unit not given here
[2] = test system: control sera (pooled serum of ten healthy LUMC hospital workers; commercial negative donor pooled serum from the Dutch bloodbank); assay type: binding, human; set-up: Binding of Control serum LUMC to linear peptides / Binding of Control serum Blood-bank to linear peptides / Binding of Control serum LUMC to looped peptides / Binding of Control Serum Blood-Bank to Looped peptides / Binding of Control serum LUMC to linear peptides of the protein M of SARS-CoV Urbani / Binding of Control serum Blood-bank to linear peptides of the protein M of SARS-CoV Urbani / Binding of Control serum LUMC to looped peptides of the protein M of SARS-CoV Urbani / Binding of Control Serum Blood-Bank to Looped peptides of the protein M of SARS-CoV Urbani: unit not given here
[3] = test system: rabbit serum obtained by immunizing a rabbit with the SARS-CoV strain Frankfurt 1; assay type: binding; set-up: Binding of a rabbit serum to linear peptides / Binding of a rabbit serum to looped peptides / Rabbit serum linear peptides / Rabbit serum looped peptides / Binding of a rabbit serum to linear peptides of protein N of SARS-CoV Urbani (Rabbit serum linear peptides) / Binding of a rabbit serum to looped/cyclic peptides of protein N of SARS-CoV Urbani (Rabbit serum looped peptides): unit not given here
[4] = test system: recombinant human anti-SARS-CoV antibody 03-018; assay type: binding; set-up: Binding of antibody 03-018 to linear peptides of the N protein of SARS-CoV Urbani / Binding of antibody 03-018 to looped/cyclic peptides of the N protein of SARS-CoV Urbani: unit not given here

Sequence	Binding of serum 1a to linear peptides of protein N of SARS-CoV Urbani [1]	Binding of serum 1a to looped/cyclic peptides of protein N of SARS-CoV Urbani [1]	Binding of serum 1b to linear peptides of protein N of SARS-CoV Urbani [1]	Binding of serum 1b to looped/cyclic peptides of protein N of SARS-CoV Urbani [1]	Binding of serum 2 to linear peptides of protein N of SARS-CoV Urbani [1]	Binding of serum 2 to looped/cyclic peptides of protein N of SARS-CoV Urbani [1]	Binding of serum 6 to linear peptides of protein N of SARS-CoV Urbani [1]	Binding of serum 6 to looped/cyclic peptides of protein N of SARS-CoV Urbani [1]	Binding of serum 37 to linear peptides of protein N of SARS-CoV Urbani [1]	Binding of serum 37 to looped/cyclic peptides of protein N of SARS-CoV Urbani [1]	Binding of serum 62 to linear peptides of protein N of SARS-CoV Urbani [1]	Binding of serum 62 to looped/cyclic peptides of protein N of SARS-CoV Urbani [1]	Binding of serum London to linear peptides of protein N of SARS-CoV Urbani [1]	Binding of serum London to looped/cyclic peptides of protein N of SARS-CoV Urbani [1]	Binding of serum SARS-green to linear peptides of protein N of SARS-CoV Urbani [1]	Binding of serum SARS-green to looped/cyclic peptides of protein N of SARS-CoV Urbani [1]	Binding of serum SARS-yellow to linear peptides of protein N of SARS-CoV Urbani [1]	Binding of serum SARS-yellow to looped/cyclic peptides of protein N of SARS-CoV Urbani [1]	Binding of Control Serum Blood-Bank to Looped peptides [2]	Binding of Control serum Blood-bank to linear peptides [2]	further results
LRFPRGQGVPINTNS	0.2	0.3	0.1	0.2	0.3	0.4	0.2	0.2	0.6	0.6	0.6	0.4	0.5	0.4	0.4	0.6	0.5	0.4	0.6	0.7	Binding of Control serum LUMC to linear peptides [2]: 0.7; Binding of Control serum LUMC to looped peptides [2]: 0.6; Binding of a rabbit serum to linear peptides of protein N of SARS-CoV Urbani (Rabbit serum linear peptides) [3]: 0.2; Binding of a rabbit serum to looped/cyclic peptides of protein N of SARS-CoV Urbani (Rabbit serum looped peptides) [3]: 0.6; Binding of antibody 03-018 to linear peptides of the N protein of SARS-CoV Urbani [4]: 0.1; Binding of antibody 03-018 to looped/cyclic peptides of the N protein of SARS-CoV Urbani [4]: 0.2
RRPQGLPNNTASWFT	0.2	0.4	0.1	0.3	0.1	0.5	0.1	0.3	0.6	0.6	0.6	0.5	0.4	0.4	0.2	0.6	0.6	0.5	0.7	0.5	Binding of Control serum LUMC to linear peptides [2]: 0.7; Binding of Control serum LUMC to looped peptides [2]: 0.6; Binding of a rabbit serum to linear peptides of protein N of SARS-CoV Urbani (Rabbit serum linear peptides) [3]: 0.1; Binding of a rabbit serum to looped/cyclic peptides of protein N of SARS-CoV Urbani (Rabbit serum looped peptides) [3]: 0.4; Binding of antibody 03-018 to linear peptides of the N protein of SARS-CoV Urbani [4]: 0.1; Binding of antibody 03-018 to looped/cyclic peptides of the N protein of SARS-CoV Urbani [4]: 0.2
